Data taken from patent US20240336654A1, “ANTIMICROBIAL PEPTIDOMIMETICS” (SPEXIS AG, priority 2021, published 2024).
Where a SMILES comes first, the peptide text is derived from it. Bridges are numbered along the chain shown (N, C = ends). [ ]: non-standard residue; d: D form. The star is where a group is joined. Val(Nα-amidino) = CC(C)[C@H](NC(=N)N)C(=O)*; Hyp = O=C(O)[C@@H]1C[C@@H](O)CN1; Pen = CC(C)(S)[C@H](N)C(=O)O; dDab = NCC[C@@H](N)C(=O)O; Orn = NCCC[C@H](N)C(=O)O; Dab = NCC[C@H](N)C(=O)O

Legend:
Assay type in all cases: cell-based
[1] = system: Escherichia coli ATCC 25922; conditions: ATCC 25922
Procedure, shortened: (§1)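 CLSI broth microdilution, slightly modified: cation-adjusted Mueller-Hinton II broth with about 5×10^5 CFU/mL from a 0.5 McFarland suspension, and two-fold serial peptide dilutions with Polysorbate 80 at 0.002% final. MIC (μg/mL) was the lowest concentration with no visible growth after 18-20 hours at 35° C.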

[2] = system: Escherichia coli MCR-1 Af 45; conditions: MCR-1 Af 45
Procedure, shortened: as §1

[3] = system: Klebsiella pneumoniae SSI3010; conditions: SSI3010
Procedure, shortened: as §1

[4] = system: human red blood cells (hRBC); conditions: red cells of human, 1 h, 200 μg/mL
Procedure, shortened: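 Percent hemolysis derived from OD540 of supernatants relative to full lysis by 2.5% Triton X-100 (PBS baseline). Washed fresh human erythrocytes (20% v/v) were exposed to 200 μg/mL peptide for 1 h at 37 °C with shaking.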

Row | Escherichia coli ATCC 25922 MIC [1] [µg/mL] | Escherichia coli MCR-1 Af45 MIC [2] [µg/mL] | Klebsiella pneumoniae SSI3010 MIC [3] [µg/mL] | SMILES | Hemolysis at 0.2 g/L [4] [%]
1 | 0.125 | 0.03125 | 0.125 | CC[C@H](C)[C@H](NC(=O)[C@@H]1C[C@@H](O)CN1C(=O)[C@@H](NC(=N)N)C(C)C)C(=O)N[C@@H]1C(=O)N[C@@H](Cc2ccc(O)cc2)C(=O)N[C@@H](CO)C(=O)N[C@@H](CC(N)=O)C(=O)N[C@@H](CCCNC(=N)N)C(=O)N[C@@H](CCN)C(=O)N[C@@H]([C@@H](C)O)C(=O)N[C@H](CCN)C(=O)N[C@@H](CCN)C(=O)N[C@@H](CCN)C(=O)N[C@@H](CCN)C(=O)N[C@H](C(=O)N[C@@H](Cc2ccc(O)cc2)C(=O)O)CSSC1(C)C [Example 125, Gua-Val-Hyp-Ile-Pen-Tyr-Ser-Asn-Arg-Dab-Thr-^DDab-Dab-Dab-Dab-Cys-Tyr] ({Val(Nα-amidino)}-[Hyp]I[Pen]YSNR[Dab]T[dDab][Dab][Dab][Dab]CY-OH; disulfide 3-14) | <1
2 | 0.125 | 0.03125 | 0.125 | CC[C@H](C)[C@H](NC(=O)[C@@H]1C[C@@H](O)CN1C(=O)[C@@H](NC(=N)N)C(C)C)C(=O)N[C@@H]1C(=O)N[C@@H](Cc2ccc(O)cc2)C(=O)N[C@@H](CO)C(=O)N[C@@H](CC(N)=O)C(=O)N[C@@H](CCCNC(=N)N)C(=O)N[C@@H](CCN)C(=O)N[C@@H]([C@@H](C)O)C(=O)N[C@H](CCN)C(=O)N[C@@H](CCCN)C(=O)N[C@@H](CCN)C(=O)N[C@@H](CCN)C(=O)N[C@H](C(=O)N[C@@H](Cc2ccc(O)cc2)C(=O)O)CSSC1(C)C [Example 126, Gua-Val-Hyp-Ile-Pen-Tyr-Ser-Asn-Arg-Dab-Thr-^DDab-Orn-Dab-Dab-Cys-Tyr] ({Val(Nα-amidino)}-[Hyp]I[Pen]YSNR[Dab]T[dDab][Orn][Dab][Dab]CY-OH; disulfide 3-14) | <1
3 | 0.125 | 0.0625 | 0.25 | CC[C@H](C)[C@H](NC(=O)[C@@H]1C[C@@H](O)CN1C(=O)[C@@H](NC(=N)N)C(C)C)C(=O)N[C@@H]1C(=O)N[C@@H](Cc2ccc(O)cc2)C(=O)N[C@@H]([C@@H](C)O)C(=O)N[C@@H](CC(N)=O)C(=O)N[C@@H](CCCNC(=N)N)C(=O)N[C@@H](CCN)C(=O)N[C@@H]([C@@H](C)O)C(=O)N[C@H](CCN)C(=O)N[C@@H](CCN)C(=O)N[C@@H](CCN)C(=O)N[C@@H](CO)C(=O)N[C@H](C(=O)N[C@@H](Cc2ccc(O)cc2)C(=O)O)CSSC1(C)C [Example 127, Gua-Val-Hyp-Ile-Pen-Tyr-Thr-Asn-Arg-Dab-Thr-^DDab-Dab-Dab-Ser-Cys-Tyr] ({Val(Nα-amidino)}-[Hyp]I[Pen]YTNR[Dab]T[dDab][Dab][Dab]SCY-OH; disulfide 3-14) | <1
4 | 0.125 | 0.125 | 0.25 | CC[C@H](C)[C@H](NC(=O)[C@@H]1C[C@@H](O)CN1C(=O)[C@@H](NC(=N)N)C(C)C)C(=O)N[C@@H]1C(=O)N[C@@H](Cc2ccc(O)cc2)C(=O)N[C@@H]([C@@H](C)O)C(=O)N[C@@H](CC(N)=O)C(=O)N[C@@H](CCCNC(=N)N)C(=O)N[C@@H](CCN)C(=O)N[C@@H]([C@@H](C)O)C(=O)N[C@H](CCN)C(=O)N[C@@H](CCCN)C(=O)N[C@@H](CCN)C(=O)N[C@@H](CO)C(=O)N[C@H](C(=O)N[C@@H](Cc2ccc(O)cc2)C(=O)O)CSSC1(C)C [Example 128, Gua-Val-Hyp-Ile-Pen-Tyr-Thr-Asn-Arg-Dab-Thr-^DDab-Orn-Dab-Ser-Cys-Tyr] ({Val(Nα-amidino)}-[Hyp]I[Pen]YTNR[Dab]T[dDab][Orn][Dab]SCY-OH; disulfide 3-14) | <1
5 | 0.125 | 0.125 | 0.5 | CC[C@H](C)[C@H](NC(=O)[C@@H]1C[C@@H](O)CN1C(=O)[C@@H](NC(=N)N)C(C)C)C(=O)N[C@@H]1C(=O)N[C@@H](Cc2ccc(O)cc2)C(=O)N[C@@H](CCN)C(=O)N[C@@H](CC(N)=O)C(=O)N[C@@H](CCCNC(=N)N)C(=O)N[C@@H](CCN)C(=O)N[C@@H]([C@@H](C)O)C(=O)N[C@H](CCN)C(=O)N[C@@H](CCN)C(=O)N[C@@H]([C@@H](C)O)C(=O)N[C@@H](CO)C(=O)N[C@H](C(=O)N[C@@H](Cc2ccc(O)cc2)C(=O)O)CSSC1(C)C [Example 129, Gua-Val-Hyp-Ile-Pen-Tyr-Dab-Asn-Arg-Dab-Thr-^DDab-Dab-Thr-Ser-Cys-Tyr] ({Val(Nα-amidino)}-[Hyp]I[Pen]Y[Dab]NR[Dab]T[dDab][Dab]TSCY-OH; disulfide 3-14) | <1
6 | 0.125 | 0.125 | 0.25 | CC[C@H](C)[C@H](NC(=O)[C@@H]1C[C@@H](O)CN1C(=O)[C@@H](NC(=N)N)C(C)C)C(=O)N[C@@H]1C(=O)N[C@@H](Cc2ccc(O)cc2)C(=O)N[C@@H](CCN)C(=O)N[C@@H](CC(N)=O)C(=O)N[C@@H](CCCNC(=N)N)C(=O)N[C@@H](CCN)C(=O)N[C@@H]([C@@H](C)O)C(=O)N[C@H](CCN)C(=O)N[C@@H](CCCN)C(=O)N[C@@H]([C@@H](C)O)C(=O)N[C@@H](CO)C(=O)N[C@H](C(=O)N[C@@H](Cc2ccc(O)cc2)C(=O)O)CSSC1(C)C [Example 130, Gua-Val-Hyp-Ile-Pen-Tyr-Dab-Asn-Arg-Dab-Thr-^DDab-Orn-Thr-Ser-Cys-Tyr] ({Val(Nα-amidino)}-[Hyp]I[Pen]Y[Dab]NR[Dab]T[dDab][Orn]TSCY-OH; disulfide 3-14) | <1
7 | 0.25 | 0.125 | 0.5 | CC[C@H](C)[C@H](NC(=O)[C@@H]1C[C@@H](O)CN1C(=O)[C@@H](NC(=N)N)C(C)C)C(=O)N[C@@H]1C(=O)N[C@@H](Cc2ccc(O)cc2)C(=O)N[C@@H]([C@@H](C)O)C(=O)N[C@@H](CC(N)=O)C(=O)N[C@@H](CCCNC(=N)N)C(=O)N[C@@H](CCN)C(=O)N[C@@H]([C@@H](C)O)C(=O)N[C@H](CCN)C(=O)N[C@@H](CCCCN)C(=O)N[C@@H](CCN)C(=O)N[C@@H]([C@@H](C)O)C(=O)N[C@H](C(=O)N[C@@H](Cc2ccc(O)cc2)C(=O)O)CSSC1(C)C [Example 131, Gua-Val-Hyp-I-Pen-Tyr-Thr-Asn-Arg-Dab-Thr-^DDab-Lys-Dab-Thr-Cys-Tyr] ({Val(Nα-amidino)}-[Hyp]I[Pen]YTNR[Dab]T[dDab]K[Dab]TCY-OH; disulfide 3-14) | <1
8 | 0.25 | 0.125 | 0.25 | CC[C@H](C)[C@H](NC(=O)[C@@H]1C[C@@H](O)CN1C(=O)[C@@H](NC(=N)N)C(C)C)C(=O)N[C@@H]1C(=O)N[C@@H](Cc2ccc(O)cc2)C(=O)N[C@@H]([C@@H](C)O)C(=O)N[C@@H](CC(N)=O)C(=O)N[C@@H](CCCNC(=N)N)C(=O)N[C@@H](CCN)C(=O)N[C@@H]([C@@H](C)O)C(=O)N[C@H](CCN)C(=O)N[C@@H](CCN)C(=O)N[C@@H](CCN)C(=O)N[C@@H]([C@@H](C)O)C(=O)N[C@H](C(=O)N[C@@H](Cc2ccc(O)cc2)C(=O)O)CSSC1(C)C [Example 132, Gua-Val-Hyp-Ile-Pen-Tyr-Thr-Asn-Arg-Dab-Thr-^DDab-Dab-Dab-Thr-Cys-Tyr] ({Val(Nα-amidino)}-[Hyp]I[Pen]YTNR[Dab]T[dDab][Dab][Dab]TCY-OH; disulfide 3-14) | <1
